Drawing on US4762648A, “Monofunctional and bisfunctional anthraquinone-(oxy-2,3-oxidopropanes), processes for their preparation, and their use as drugs” (Hoechst Aktiengesellschaft, priority 1983, dated 1988), this text covers IC50 and LD50 for five molecules.

The subject of series [1] is L 1210 leukemia cells. Put plainly: Colony formation of L 1210 leukemia cells in soft agar (stem cell assay). The class given is cell-based. The settings on record: Mus musculus. As to the method: In this test, cytostatically active substances produce a reduction of the number of colonies observed relative to an untreated control. Specifically, the test is carried out as follows:
500 Leukemia cells per plate are incubated with different concentrations of test substance for 1 hour at 37° C. The cells are then washed twice with McCoy 5a medium and finally, after addition of 0.3% of agar, poured out into Petri dishes. Controls are incubated with fresh medium only. In place of the 1-hour incubation, different concentrations of the test substance are in some cases mixed into the upper agar layer so as to achieve continuous exposure of the cells over the entire incubation period. After the agar has solidified, the plates are incubated in an incubating chamber for 7 days at 37° C. (5% CO2, 95% relative atmospheric humidity). Thereafter, the number of colonies formed which have a diameter of 60μ is counted. The results are quoted as the number of colonies in the treated agar plates expressed as a percentage of those in the untreated control. From the dose/effect curve thus obtained, the IC50 is determined and serves as a measure of the effectiveness of the substance.

The nature of series [2]: Determination of acute toxicity, intraperitoneal. The following applies: mouse, in vivo, ip, NMRI mice, day 14, Litchfield Wilcoxon. As to the method: To determine the acute toxicity, NMRI mice were injected intraperitoneally,on day 0, with different doses of the test substance suspended in 0.5 ml of 0.5% strength carboxymethylcellulose. Control groups were given solely 0.5 ml of carboxymethylcellulose solution. 5 Mice were employed per concentration of test substance. On day 14, the number of surviving mice is determined and the LD50 found therefrom by the Litchfield Wilcoxon method.

The subject of series [3] is L 1210 leukemia cells. The experiment in a line: Proliferation assay: incorporation of C-14-thymidine in L 1210 cells. The class given is cell-based. The settings on record: Mus musculus, read-out: Proliferation assay IC50. As to the method: The determination of the cytotoxic activity of the compounds described in the present patent is carried out on L 1210 leukemia cells of the mouse. Specifically, the following test systems were used:
In this in vitro method, after incubation of the cells with varying concentrations of the test substance a determination is carried out of the extent to which the cells can incorporate radioactively labelled DNA-precursors (for example C-14-labelled thymidine).
L 1210 Cells in the exponential growth phase (5×10^3 /ml in RPMI 1640) are incubated for 72 hours, in a microtitration plate, with different concentrations of the test substance (37° C., 5% CO2, 95% relative atmospheric humidity). Controls consist of cells which are incubated solely with fresh medium. All assays are carried out in quadruplicate. After 65 hours, 50 μl of C-14-thymidine (1.5 μc/ml) are added in order to radioactively label the DNA of the cell. After 7 hours' incubation, the cells are filtered off with suction, and the DNA is precipitated with 5% strength dichloroacetic acid and successively washed with water and methanol. After drying at 50° C., the radioactivity built into the DNA is determined after adding 5 ml of scintillation fluid.
The results are quoted as a ratio of the scintillation indices obtained after incubation with the test substance and obtained with the untreated control. From the measurements thus obtained, the dose/effect curve is determined and the IC50, i.e. the concentration which under test conditions reduces the incorporation of radioactive thymidine by 50% relative to the control, is determined graphically.

The mark [4] stands for this setting: L1210, 168 h, L 1210 colony formation in soft agar, continuous exposure, 7 days, read-out: Stem cell assay IC50, Incubation: Continuous.
The mark [5] stands for this setting: L1210, L 1210 colony formation in soft agar, 1 hour incubation, 7 days, read-out: Stem cell assay IC50, Incubation: 1 hour.
The mark [6] stands for this setting: L1210, L 1210 cells, 72 hours, C-14-thymidine incorporation.

Molecules are shown by their SMILES. ≈ marks a conversion by molar mass, not a printed value.

As a reminder, the LD50 is the dose at which mortality reaches 50%. Low values mean a more toxic substance, high ones a less toxic substance. Turning to `O=C1c2ccc(OCC3CO3)cc2C(=O)c2ccc(OCC3CO3)cc21` (centres unmarked) [Example 5, Anthraquinone-2,6-bis(oxy-2,3-oxido-propane)], the IC50 in series [1] (setting [4]) came to 0.01 µg/mL (≈ 0.0284 µM); in series [1] (setting [5]), 0.0083 µg/mL (≈ 0.0236 µM); in series [3] (L1210, 72 h) it was 0.0044 µg/mL (≈ 0.0125 µM). The same molecule returned an LD50 at 336 h in series [2] of 200 mg/kg.
Consider `COc1cccc2c1C(=O)c1c(O)c3c(c(O)c1C2=O)C[C@@](O)(C(=O)CO)C[C@@H]3O[C@H]1C[C@H](N)[C@H](O)[C@H](C)O1` [Adriamycin, reference compound], for which the IC50 amounted to 0.02 µg/mL (≈ 0.0368 µM) in series [1] (L1210, 168 h, read-out: Stem cell assay IC50, Incubation: Continuous); 0.044 µg/mL (≈ 0.081 µM) in series [1] (L1210, read-out: Stem cell assay IC50, Incubation: 1 hour); 0.006 µg/mL (≈ 0.011 µM) in series [3] (L1210, 72 h). For the same molecule, in series [2], the LD50 at 336 h turned out to be 14 mg/kg.
As for `O=C1c2ccccc2C(=O)c2c(OCC3CO3)ccc(OCC3CO3)c21` (centres unmarked) [Example 4, Anthraquinone-1,4-bis-(oxy-2,3-oxido-propane)], the IC50 in series [1] (setting [4]) was 0.0033 µg/mL (≈ 0.00937 µM); in series [1] (setting [5]) it was 0.004 µg/mL (≈ 0.0114 µM); in series [3] (setting [6]), 0.0022 µg/mL (≈ 0.00624 µM).
The corresponding values for `O=C1c2ccccc2C(=O)c2c(OCC3CO3)ccc(O)c21` (centres unmarked) [Example 3, 1-Hydroxy-anthraquinone-4-(oxy-2,3-oxido-propane)] are 0.03 µg/mL (≈ 0.101 µM), 0.066 µg/mL (≈ 0.223 µM) and 0.028 µg/mL (≈ 0.0945 µM).
The corresponding values for `O=C1c2cccc(OCC3CO3)c2C(=O)c2c(OCC3CO3)cccc21` (centres unmarked) [Example 8, Anthraquinone-1,8-bis-(oxy-2,3-oxido-propane)] are 0.0085 µg/mL (≈ 0.0241 µM), 0.03 µg/mL (≈ 0.0851 µM) and 0.028 µg/mL (≈ 0.0795 µM).
